Assay results from paper PMC6155239, “Targeting PFKFB3 radiosensitizes cancer cells and suppresses homologous recombination” (Nature Communications, 2018).
“Also recorded” adds a separate entry of the source.

What was measured:
PFKFB3 = PFKFB3 (Homo sapiens, UniProt Q16875); assay: ADP-Glo kinase activity assay, PFKFB3; format: biochemical; details: in vitro enzymatic assay
Procedure: The kinase activity of the bi-functional enzyme was quantified based on the production of ADP and F-2,6-P2 from ATP by ADP-GloTM Kinase Assay (Promega). The assay was performed in two steps; first, after the kinase reaction, an equal volume of ADP-GloTM Reagent was added to terminate the kinase reaction and deplete the remaining ATP. Second, the Kinase Detection Reagent was added to simultaneously convert ADP to ATP and allow the newly synthesized ATP to be measured using a luciferase/luciferin reaction. The light generated was measured using a luminescence counter (1450 MicroBeta TriLux). The assay was performed in white 384-well plates (OptiPlate, 6007299, PerkinElmer) by consecutive additions of a test compound solution (0.1 µL, serial diluted in DMSO from compound DMSO stock solution and dispensed by acoustic dispensing from UV-star 384-well plate 7360153, VWR), enzyme solution (5 µL) and substrate (fructose-6-phosphate (F6P) and adenosine-5′-triphosphate (ATP)) containing solution (5 µL). […] Four reference dose–response curves, one of them being the QC compound, were included and serial diluted as the test compounds. The final concentrations of all reagents per well were 50 mM Tris–HCl at pH 8.0, 10 mM MgCl2, 5 mM NaPi at pH 8.0, 81.48 nM PFKFB3 or 145 nM PFKFB4, 8 µM ATP, 100 µM F6P (acid treated and then neutralized to remove any contaminating F-2,6-P2[34]), 0.005% Tween-20 and 1 mM dithiothreitol. Enzyme, compounds, and controls were pre-incubated at room temperature for 15 min before the addition of substrate solution. The enzymatic reaction was allowed to proceed for 20 min and the reaction was terminated by the addition of ADP-GloTM Reagent (10 µL) to all wells followed by 40 min incubation at room temperature. […] The inhibitory potency or IC50 values of test compounds on the kinase activity of the enzymes were calculated using a four-parameter model (model 205) in XLfit (IDBS ActivityBase XE Runner).

U2OS cells [1] = assay: IR-induced RAD51 / RPA32 foci, confocal; format: cell-based; details: in combination with IR
Procedure: (§1) Cells were grown on sterilized coverslips and fixed with 4% paraformaldehyde (PFA) (Santa Cruz) and 2% sucrose (Sigma Aldrich) for 15 min at room temperature. They were then permeabilized with 0.2% NP-40 (Thermo Scientific) for 10 min at room temperature followed by 30 min of blocking in blocking buffer (2 or 3% BSA, 5% glycerol, 0.1% Tween 20 (Sigma Aldrich)). Coverslips were subsequently incubated for 1, 2, or 24 h in primary antibody and 40 min in secondary antibody diluted in blocking buffer, DNA was stained with DAPI for 10 min. The coverslips were mounted with Prolonged Gold mounting medium (Invitrogen). Images were acquired with a Zeiss LSM 780 microscope using a 40× or 63× oil immersion lens and processed in ImageJ and CellProfiler.
To visualize PFKFB3, RPA32, RAD51, BRCA1, 53BP1, and RRM2 IRIF, the cells were first washed with PBS and then incubated for 5 min at room temperature with cytoskeleton (CSK) buffer containing 10 mM PIPES pH 7.0 (Sigma Aldrich), 100 mM NaCl (EMD Millipore), 300 mM sucrose (Sigma Aldrich), 3 mM MgCl2 (Sigma Aldrich), and 0.7% Triton X-100 (Sigma Aldrich). After these treatments, the cells were washed once again with PBS and then fixed in 4% PFA with 2% sucrose.

U2OS DR-GFP cells = assay: DR-GFP (HR) assay; format: cell-based
Procedure: 5 × 10^4 U2OS (DR-GFP) cells were seeded into 12-well plates, 24 h later cells were treated with the indicated siRNAs or inhibitors and, 24 h later, transfected with 150 ng of an I-SceI vector using JetPEI or JetPRIME (Polyplus transfections). The next day, the medium was changed; 24 h after this, cells were harvested by trypsinization and washed with PBS, and the GFP signal was measured by flow cytometry on a FACS Navios (as described above). The frequency of repair in cells treated with inhibitors or transfected with the various siRNAs was calculated relative to cells treated with DMSO or transfected with control siRNA.

U2OS cells [2] = assay: Cell cycle analysis (propidium iodide, flow cytometry); format: cell-based; details: 24 h post-IR
Procedure: For cell cycle analysis, cells were treated or transfected with siRNA as described and harvested at the indicated time points with trypsin. For studies using IR, cells were exposed to IR with 2 Gy, and harvested at the indicated time points with trypsin. The cells were washed in PBS and fixed with 70% ethanol in PBS at 4 °C for 1 h and then stored at −20 °C until staining. Ethanol was removed by centrifugation and cells were then washed in PBS before staining DNA with propidium iodide (PI) solution containing 40 μg/mL PI, 100 μg/mL RNase A, and 0.1% Triton X-100 (Sigma Aldrich). Cells were analyzed by flow cytometry on a FACS Navios (Beckman Coulter) using Kaluza software.

U2OS cells [3] = assay: IR-induced nuclear recruitment of PFKFB3; format: cell-based; details: 2 h prior to IR
Procedure: as §1

U2OS cells [4] = assay: IR-induced Mre11 / Nbs1 foci formation; format: cell-based; details: treatment prior to IR (6 Gy, 2 h recovery)
Procedure: as §1

PFKFB3, sequence (Q16875 whole entry): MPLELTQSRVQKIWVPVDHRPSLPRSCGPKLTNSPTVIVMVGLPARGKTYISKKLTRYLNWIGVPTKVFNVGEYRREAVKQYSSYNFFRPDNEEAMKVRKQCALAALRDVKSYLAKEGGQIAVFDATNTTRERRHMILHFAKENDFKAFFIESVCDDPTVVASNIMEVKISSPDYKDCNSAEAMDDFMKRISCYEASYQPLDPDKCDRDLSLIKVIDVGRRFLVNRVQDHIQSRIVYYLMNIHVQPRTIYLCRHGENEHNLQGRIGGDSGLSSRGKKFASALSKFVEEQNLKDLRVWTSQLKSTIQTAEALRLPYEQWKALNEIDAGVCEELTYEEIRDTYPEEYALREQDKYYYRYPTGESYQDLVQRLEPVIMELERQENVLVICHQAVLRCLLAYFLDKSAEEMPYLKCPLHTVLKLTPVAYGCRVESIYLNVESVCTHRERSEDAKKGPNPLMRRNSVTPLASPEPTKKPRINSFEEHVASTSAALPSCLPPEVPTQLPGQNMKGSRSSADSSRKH

Row | Structure (SMILES) | inhibition of recombinant PFKFB3 kinase activity (in words) (PFKFB3) | IR-induced recruitment of RPA32 and RAD51 into repair foci (in words) (U2OS cells [1]) | effect on HR activity (in words) (U2OS DR-GFP cells) | accumulation of cells in G2/M phase upon IR (in words) (U2OS cells [2]) | IR-induced recruitment of PFKFB3 (in words) (U2OS cells [3]) | IR-induced Mre11 or Nbs1 foci formation (in words) (U2OS cells [4])
1 | O=C(C=Cc1cccnc1)c1ccncc1 [3-PO, 3-(3-pyridinyl)-1-(4-pyridinyl)-2-propen-1-one, reference compound] | could not achieve an IC50 value | unaffected | did not decrease HR activity; also recorded: without affecting HR activity | not seen |  | 
2 | N=C1NC(=O)/C(=C/c2ccc(O)cc2)S1 [Mirin, reference compound] |  |  |  |  | blocked | completely blocked
